Source: patent publication US11584728B2, “Compositions and methods for the prevention and/or treatment of mitochondrial disease, including Friedreich's ataxia” (STEALTH BIOTHERAPEUTICS INC., priority 2019, dated 2023)
Read-outs that look alike come from different tables or passages of the source.

How the values were obtained:
[1] = tested on: frataxin deficient fibroblasts (GM03665); assay: Frataxin Deficient Fibroblast Viability Assay (BSO Assay); settings: Homo sapiens, 48 h
[2] = tested on: HepG2 human hepatocarcinoma cells; assay: Rotenone ATP-Assay (Complex I by-pass); assay type: cell-based; settings: for Activity in both the BSO Assay and the Rotenone ATP Assay (in words): circumvent BSO induced cell death and restore ATP production when Complex I is inhibited; for EC50: Homo sapiens, 1 h, HepG2 cells, 50 micromolar rotenone, 60 minutes
Procedure: Example 18: Rotenone ATP-Assay
Introduction: • This assay has been adapted from Haefeli R H, Erb M, Gemperli A C, Robay D, Courdier Fruh I, et al. (2011) NQO1-Dependent Redox Cycling of Idebenone: Effects on Cellular Redox Potential and Energy Levels. PLoS ONE 6(3): e17963. HepG2 human hepatocarcinoma cells were co-incubated with the electron transport chain Complex I toxin rotenone +/−compounds of interest and the corresponding effect on ATP synthesis was measured with a bioluminescent substrate.
Assay Experimental: • In brief, HepG2 cells were plated at 25,000 cells per well in low glucose (1 gram/Liter) DMEM medium +10% fetal calf serum and incubated for 24 hours. The following day, the media was decanted and subsequently replaced with glucose free/serum free DMEM which has been supplemented with 50 micromolar rotenone and compound of interest. Serial dilutions of compound were prepared in 3× dilutions beginning at 25 micromolar. The cells were incubated for 60 minutes in a humidified tissue culture incubator. Following incubation, ATP levels were quantified via bioluminescent assay (Promega […]) and readings were captured on a standard microplate reader.
Calculations: • ATP bioluminescence is plotted versus the log of compound of interest and data were used to generate EC50 values. Curve fitting was performed using a sigmoidal dose response curve fit function (GraphPad Prism software).
Robustness of curve fit was assessed as a quality control measure, with an R squared value of at least 0.80 being required for a successful curve fit. Compounds of interest showing an increase in ATP bioluminescence relative to vehicle control were verified in an independent biological replicate of n=3 technical replicates per dose.
Discussion: • This assay is a direct measure of the ability of compounds of interest to restore ATP production under conditions of inhibition of Complex I of the mitochondrial electron transport chain. As the majority of ATP produced via the electron transport chain is thought to derive from Complex I activity, significant impairment in Complex I function has dire biological consequences. Of note, Complex I mutations are thought to drive pathophysiology in multiple mitochondrial diseases, including Leigh syndrome and Leber's Hereditary Optic Neuropathy (LHON), while diminished Complex I activity and the resultant attenuation of ATP production has been shown in neurodegenerative diseases, including Friedreich's Ataxia, Parkinson's Disease and Huntington's Disease.

GM03665 cells = assay: RSL3 Toxicity Assay (RSL3 Assay); assay type: cell-based, human; settings: Homo sapiens, GM03665 cells, RSL3 2 μM, 24 hours, MTT
Procedure: Example 19: RSL3 Toxicity Assay (RSL3 Assay)
In brief, GM03665 cells (Coriell Institute) were seeded in 96-well plates (Sarstedt) in DMEM cell culture media containing 10% Fetal Bovine serum and 1% Penicillin-Streptomycin (Pen-Strep) antibiotic mix at the amount of 2×10^4/mL (100 μL or 2×10^3 cells per well). Cells were left to rest overnight at 37° C. in a humidified atmosphere with 5% CO2 to allow attachment of the cells to the culture plate. Test compounds were prepared as DMSO stocks (10 mM) and were serially diluted in cell culture media to obtain 2× working solutions. Cell media was discarded and replaced by 50 μL of test compound solutions or cell media with vehicle for control wells. Within 15 minutes, 2× working solution (4 μM) of 1S,3R-RSL3 (CAS #1219810-16-8, Sigma-Aldrich) (diluted from 5 mM DMSO stock in cell culture media) was added. Final reaction volume was 100 μL and final DMSO concentration in reaction was kept below 0.2% (v/v) and equal in all wells. Final RSL3 concentration was 2 μM and test compound final concentrations in reaction were up to 1000 nM. After 24 hours of incubation cell viability was assessed by MTT test. MTT (Sigma-Aldrich) solution 1 mg/mL in 1×PBS (pH=7,4) was prepared 1 hour before the assay and filtered through Filtropur S 0.2 filters (Sarstedt). Cell media with test compounds was discarded and 100 μL of MTT solution was added to cells. The plates were incubated for 2 hours at +37° C. Thereafter, the MTT solution was removed and 100 μL of isopropanol was added to dissolve sediment. Absorption at 570 and 650 nm was measured using Hidex Sense microplate reader.

Nrf-2 = Nrf-2 Activation Assay (Nrf-2 Assay); assay type: cell-based, human; settings: 1 μM, 24 hours; for Nrf-2 Assay: Table 7, GM03665 fibroblasts, qPCR of Nrf-2 responsive genes
Procedure: Example 21: Nrf-2 Activation Assay (Nrf-2 Assay)
This assay was developed internally and was designed to determine if the novel test compounds disclosed herein active Nrf-2 and thereby promote resolution of inflammation by the mechanism believed to be responsible for the activity of omaveloxolone.
Briefly, GM03665 Friedreich Ataxia patient fibroblasts were grown in 12 Well Plates (TC Cell+F) (Sarstedt, Nümbrecht Germany), at a density of 12×10^4 cells/per well in DMEM/F12 (Gibco, ThermoFisher Scientific, Waltham, Mass., USA) cell media supplemented with 10% FBS and 1% Pen/Strep. Cells were left to rest overnight at 37° C. in a humidified atmosphere with 5% CO2 to allow attachment of the cells to the culture plate. Before continuing assay visual inspection of each well was done by light microscopy to detect any possible bacterial and fungal contamination. […] After incubation, cell media was removed and total RNA from the cells was isolated using E.Z.N.A.® Total RNA Kit I (Omega Bio-tek, Norcross, Ga., USA) spin columns, and first-strand cDNA synthesis was carried out using a High Capacity cDNA Reverse Transcription Kit (Applied Biosystems™, Foster City, Calif.) following the manufacturer's instructions. qPCR analysis of gene expression was performed by mixing SYBR® Green Master Mix (Applied Biosystems™) with synthesized cDNA and forward and reverse primers. […] (60 cycles), and 95° C. for 60 seconds, followed by melt curve analysis at 72-95° C., 0.3° C./sec. The relative expression levels for each gene were calculated with the ΔΔCt method and normalized to the expression of REEP5 and SNRPD3 genes.

[3] = ATP bioluminescence, read-out: EC50 Rotenone ATP Assay
[4] = Table 7, read-out: Rotenone ATP Assay EC50
[5] = Table 3, mean of at least three measurements, nM printed in Table 7, read-out: RSL3 Assay EC50, Mean
[6] = Table 7, read-out: RSL3 Assay EC50

Compound | EC50 ([1]; read-out: EC50 (nM) BSO Assay) [nM] | EC50 [2, 3] [µM] | EC50 ([1]; read-out: BSO Assay) [nM] | further results
C/C(=C\CC[C@]1(C)CCc2c(C)c(O)c(C)c(C)c2O1)CCC=C(F)F [Compound 56, (R,E)-2-(8,8-difluoro-4-methylocta-3,7-dien-1-yl)-2,5,7,8-tetramethylchroman-6-ol] | < 100 | – | – | –
Cc1c(C)c2c(c(C)c1O)CC[C@@](C)(CCC=C(F)F)O2 [Compound 67, (R)-2-(4,4-difluorobut-3-en-1-yl)-2,5,7,8-tetramethylchroman-6-ol] | < 100 | – | – | Activity in both the BSO Assay and the Rotenone ATP Assay (in words) [2]: possess both activities
CC1=C(C)C(=O)C(CC[C@](C)(O)CC/C=C(\C)CC/C=C(\C)CCC=C(CF)CF)=C(C)C1=O [Compound A, 2-((R,6E,10E)-16-fluoro-15-(fluoromethyl)-3-hydroxy-3,7,11-trimethylhexadeca-6,10,14-trien-1-yl)-3,5,6-trimethylcyclohexa-2,5-diene-1,4-dione] | < 100 | – | – | –
CC(=CCC/C(C)=C/CC/C(C)=C/CC[C@@](C)(O)CCC1=C(C)C(=O)C(C)=C(C)C1=O)CF [Compound B, 2-((R,6E,10E)-16-fluoro-3-hydroxy-3,7,11,15-tetramethylhexadeca-6,10,14-trien-1-yl)-3,5,6-trimethylcyclohexa-2,5-diene-1,4-dione] | < 100 | – | – | –
CC1=C(C)C(=O)C(CC[C@](C)(O)CC/C=C(\C)CC/C=C(\C)CCC=C(F)F)=C(C)C1=O [Compound C, 2-((R,6E,10E)-15,15-difluoro-3-hydroxy-3,7,11-trimethylpentadeca-6,10,14-trien-1-yl)-3,5,6-trimethylcyclohexa-2,5-diene-1,4-dione] | < 100 | – | – | –
CC1=C(C)C(=O)C(CC[C@](C)(O)CC/C=C(\C)CC/C=C(\C)CCC=C2CCC2)=C(C)C1=O [Compound D, 2-((R,6E,10E)-14-cyclobutylidene-3-hydroxy-3,7,11-trimethyltetradeca-6,10-dien-1-yl)-3,5,6-trimethylcyclohexa-2,5-diene-1,4-dione] | < 100 | > 3 | – | –
CC1=C(C)C(=O)C(CC[C@](C)(O)CC/C=C(\C)CC/C=C(\C)CCC=C2CCCC2)=C(C)C1=O [Compound F, 2-((R,6E,10E)-14-cyclopentylidene-3-hydroxy-3,7,11-trimethyltetradeca-6,10-dien-1-yl)-3,5,6-trimethylcyclohexa-2,5-diene-1,4-dione] | < 100 | – | – | –
CC1=C(C)C(=O)C(CC[C@](C)(O)CC/C=C(\C)CC/C=C(\C)CCC=C2CCCCC2)=C(C)C1=O [Compound G, 2-((R,6E,10E)-14-cyclohexylidene-3-hydroxy-3,7,11-trimethyltetradeca-6,10-dien-1-yl)-3,5,6-trimethylcyclohexa-2,5-diene-1,4-dione] | < 100 | – | – | –
CC1=C(C)C(=O)C(CC[C@](C)(O)CC/C=C(\C)CCC=C(F)F)=C(C)C1=O [Compound H, (R,E)-2-(11,11-difluoro-3-hydroxy-3,7-dimethylundeca-6,10-dien-1-yl)-3,5,6-trimethylcyclohexa-2,5-diene-1,4-dione] | 100 to 1000 | < 1 | 164 | EC50 [2, 4]: 1.14 µM; EC50 (GM03665 cells; [5]): 179 nM; EC50 (GM03665 cells; [6]): 179 nM; Nrf-2 Assay (Nrf-2): Inactive
CC1=C(C)C(=O)C(CC[C@](C)(O)CCC=C(F)F)=C(C)C1=O [Compound I, (R)-2-(7,7-difluoro-3-hydroxy-3-methylhept-6-en-1-yl)-3,5,6-trimethylcyclo-hexa-2,5-diene-1,4-dione] | 100 to 1000 | > 3 | – | –
CC1=C(C)C(=O)C(CC[C@@](C)(O)CC/C=C(\C)CC/C=C(\C)CCC=C(F)F)=C(C)C1=O [Compound J, 2-((S,6E,10E)-15,15-difluoro-3-hydroxy-3,7,11-trimethylpentadeca-6,10,14-trien-1-yl)-3,5,6-trimethylcyclohexa-2,5-diene-1,4-dione] | < 100 | – | – | –
CC1=C(C)C(=O)C(CC[C@@](C)(O)CCC=C(F)F)=C(C)C1=O [Compound K, (S)-2-(7,7-difluoro-3-hydroxy-3-methylhept-6-en-1-yl)-3,5,6-trimethylcyclo-hexa-2,5-diene-1,4-dione] | < 100 | > 3 | – | –
CC1=C(C)C(=O)C(CC[C@@](C)(O)CC/C=C(\C)CCC=C(F)F)=C(C)C1=O [Compound L, (S,E)-2-(11,11-difluoro-3-hydroxy-3,7-dimethylundeca-6,10-dien-1-yl)-3,5,6-trimethylcyclohexa-2,5-diene-1,4-dione] | < 100 | < 1 | 39.1 | EC50 [2, 4]: 0.891 µM; Activity in both the BSO Assay and the Rotenone ATP Assay (in words) [2]: possess both activities; EC50 (GM03665 cells; [5]): 41.9 nM; EC50 (GM03665 cells; [6]): 41.9 nM; Nrf-2 Assay (Nrf-2): Inactive
CC1=C(C)C(=O)C(CC[C@](C)(O)CCCCCCCCC(F)(F)F)=C(C)C1=O [Compound N, (R)-2,3,5-trimethyl-6-(12,12,12-trifluoro-3-hydroxy-3-methyldodecyl)cyclo-hexa-2,5-diene-1,4-dione] | 100 to 1000 | 1 to 3 | 144 | EC50 [2, 4]: 2.37 µM; Activity in both the BSO Assay and the Rotenone ATP Assay (in words) [2]: possess both activities; EC50 (GM03665 cells; [5]): 93 nM; EC50 (GM03665 cells; [6]): 93 nM; Nrf-2 Assay (Nrf-2): Inactive
COC1=C(OC)C(=O)C(CCCCCCCCCCO)=C(C)C1=O [Idebenone, reference compound] | – | 1 to 3 | > 1000 | EC50 [2, 4]: 1.56 µM
CC1(C)CC[C@]2(NC(=O)C(C)(F)F)CC[C@]3(C)[C@H](C(=O)C=C4[C@@]5(C)C=C(C#N)C(=O)C(C)(C)[C@@H]5CC[C@]43C)[C@@H]2C1 [Omaveloxolone, reference compound] | < 100 | > 3 | 48.6 | Activation of Nrf-2 responsive genes (in words, FIG. 7) (Nrf-2): positive; Nrf-2 Assay (Nrf-2): Active
